For assay [1], the system named is MCF7. The experiment in a line: Cytotoxicity against human MCF7 cells expressing pcDNA3 assessed as reduction of cell viability after 48 hrs CellTiter-Glo assay. The class given is functional, cell-based. The following applies: MCF7, 48 h. Background: ATP-based viability assays read luminescence as a measure of living cells.
The test system of assay [2] is MCF7. Description: Cytotoxicity against human MCF7 cells expressing HER2delta16 assessed as reduction of cell viability after 48 hrs CellTiter-Glo assay. The note with it: MCF7, 48 h. It counts as functional, cell-based.
Assay [3] concerns the target T1, Receptor tyrosine-protein kinase erbB-2 (Homo sapiens, UniProt P04626). The experiment in a line: Inhibition of HER2 autophosphorylation at Y1248 in human MCF7 cells expressing pcDNA3 at 10 uM after 2 hrs by Western blotting. The class given is cell-based. In general terms: A western blot detects proteins with antibodies after separation by electrophoresis.
The test system of assay [4] is MCF7. Description: Cytotoxicity against human MCF7 cells expressing HER2 assessed as reduction of cell viability at 10 uM after 48 hrs CellTiter-Glo assay. The class given is functional.
Assay [5] has as its system MCF7. Description: Cytotoxicity against human MCF7 cells expressing pcDNA3 assessed as reduction of cell viability at 10 uM after 48 hrs CellTiter-Glo assay. It counts as functional.
Assay [6] deals with MCF7. Description: Cytotoxicity against human MCF7 cells expressing HER2 assessed as reduction of cell viability after 48 hrs CellTiter-Glo assay. It counts as functional, cell-based. The note with it: MCF7, 48 h.
The test system of assay [7] is MCF7. The experiment in a line: Inhibition of HER2 delta16 mutant autophosphorylation at Y1248 in human MCF7 cells at 10 uM after 2 hrs by Western blotting. The class given is cell-based.
Assay [8] addresses T1, Receptor tyrosine-protein kinase erbB-2. Description: Inhibition of HER2 autophosphorylation at Y1248 in human MCF7 cells at 10 uM after 2 hrs by Western blotting. The class given is cell-based.
Assay [9] concerns MCF7. The experiment in a line: Cytotoxicity against human MCF7 cells expressing HER2delta16 assessed as reduction of cell viability at 10 uM after 48 hrs CellTiter-Glo assay. The class given is functional.
Assay [10] addresses T1, Receptor tyrosine-protein kinase erbB-2. Description: Inhibition of HER2 (unknown origin) by ADP-Glo assay. On the technique in general: In ADP-Glo the light output rises with the ADP produced.

Calls of active or inactive are those of the source. The rule behind the calls is not given here. Some results are limits rather than exact numbers.

T1 sequence (P04626 whole entry): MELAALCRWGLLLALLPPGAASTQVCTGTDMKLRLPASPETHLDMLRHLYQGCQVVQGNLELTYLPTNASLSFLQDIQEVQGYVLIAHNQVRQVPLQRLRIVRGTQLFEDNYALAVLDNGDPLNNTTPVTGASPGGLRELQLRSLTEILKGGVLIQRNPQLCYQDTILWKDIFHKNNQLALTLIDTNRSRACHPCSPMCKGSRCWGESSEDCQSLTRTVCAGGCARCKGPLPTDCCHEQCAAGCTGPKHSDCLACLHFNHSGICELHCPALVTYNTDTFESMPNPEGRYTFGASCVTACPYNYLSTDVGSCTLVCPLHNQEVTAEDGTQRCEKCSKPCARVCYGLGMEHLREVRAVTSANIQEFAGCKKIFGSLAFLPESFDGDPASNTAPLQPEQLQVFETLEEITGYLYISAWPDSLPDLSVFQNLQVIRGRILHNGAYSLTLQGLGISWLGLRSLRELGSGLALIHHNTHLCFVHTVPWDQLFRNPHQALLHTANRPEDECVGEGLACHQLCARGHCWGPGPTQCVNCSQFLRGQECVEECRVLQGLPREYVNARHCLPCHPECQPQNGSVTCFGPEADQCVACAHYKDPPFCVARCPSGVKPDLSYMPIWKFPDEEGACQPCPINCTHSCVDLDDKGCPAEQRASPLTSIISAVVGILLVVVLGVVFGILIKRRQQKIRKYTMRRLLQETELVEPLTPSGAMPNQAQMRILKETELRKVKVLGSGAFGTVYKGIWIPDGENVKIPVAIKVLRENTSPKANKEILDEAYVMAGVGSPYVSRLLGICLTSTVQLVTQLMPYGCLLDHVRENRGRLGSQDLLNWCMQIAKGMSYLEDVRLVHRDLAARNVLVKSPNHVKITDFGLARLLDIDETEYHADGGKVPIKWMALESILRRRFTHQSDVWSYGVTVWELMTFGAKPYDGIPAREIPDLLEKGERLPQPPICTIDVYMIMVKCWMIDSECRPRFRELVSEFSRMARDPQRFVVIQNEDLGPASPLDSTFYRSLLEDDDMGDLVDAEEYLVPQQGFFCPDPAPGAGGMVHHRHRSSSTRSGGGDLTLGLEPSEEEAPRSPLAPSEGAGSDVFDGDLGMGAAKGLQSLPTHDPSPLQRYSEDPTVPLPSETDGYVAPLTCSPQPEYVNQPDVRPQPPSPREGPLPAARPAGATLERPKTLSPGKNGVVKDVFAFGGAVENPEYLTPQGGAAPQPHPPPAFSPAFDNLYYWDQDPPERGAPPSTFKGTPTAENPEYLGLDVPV

One may read the IC50 as the concentration needed to halve the response being measured. In the case of `O=C1C(CO)=C(CO)C(=O)c2c(O)ccc(O)c21`, the IC50 with MCF7 [1] was 0.5 µM; in the assay with MCF7 [2], 0.93 µM; in the assay on MCF7 [6] it was 0.82 µM; in assay [10], 11.4 µM. Also, the inhibition entry (in assay [3]; in the assay with MCF7 [7]; in assay [8]) was “Active” in each case. For the same compound, the Activity in the assay on MCF7 [4], in the assay with MCF7 [5] and in the assay with MCF7 [9] was over 90% each time.

Take `CC(=O)Oc1ccc(O)c2c1C(=O)C=CC2=O`: the inhibition result (in assay [3]; in the assay on MCF7 [7]; in [8]) was “inactive” each time.

On to `O=C1C2=C(C(=O)c3c(O)ccc(O)c31)[C@@H](O)[C@@H](O)[C@@H](O)C2`, for which the IC50 with MCF7 [1] worked out at 0.47 µM; in the assay with MCF7 [2], 0.91 µM; in the assay on MCF7 [6], 0.87 µM; in [10], 10.8 µM. The inhibition result (in [3]; with MCF7 [7]; in [8]) was “Active” throughout. Also, the Activity in the assay on MCF7 [4], with MCF7 [5] and with MCF7 [9] was over 90% throughout.

In the case of `CS(=O)(=O)CCNCc1ccc(-c2ccc3ncnc(Nc4ccc(OCc5cccc(F)c5)c(Cl)c4)c3c2)o1` [LAPATINIB], the IC50 stood at 15.7 µM with MCF7 [1], 19.2 µM with MCF7 [2] and 15.8 µM in the assay on MCF7 [6]. Further, the inhibition entry (in [3]; in the assay with MCF7 [7]; in assay [8]) was “Active” each time. The Activity with MCF7 [4], in the assay on MCF7 [5] and in the assay with MCF7 [9] was under 50% each time.

Take `CC1=CC(=O)c2c(O)cccc2C1=O` [PLUMBAGIN]: the IC50 in the assay with MCF7 [1] was 3.35 µM; in the assay on MCF7 [2], 5.1 µM; in the assay on MCF7 [6], 2.84 µM; in assay [10] it was 30.8 µM. The inhibition result (in assay [3]; in the assay on MCF7 [7]; in assay [8]) was “Active” throughout. The Activity with MCF7 [4], in the assay with MCF7 [5] and in the assay on MCF7 [9] was over 90% throughout.

Values taken from ChEMBL document CHEMBL3098113, “Identification of quinones as HER2 inhibitors for the treatment of trastuzumab resistant breast cancer” (Bioorg Med Chem Lett, 2014).
